pCD data for 17 compounds are collected here from ChEMBL document CHEMBL4477240, “Electron affinity of tricyclic, bicyclic, and monocyclic compounds containing cyanoenones correlates with their potency as inducers of a cytoprotective enzyme” (Bioorg Med Chem Lett, 2016).

Each structure is given as a SMILES string.

The experiment addresses T1, Nuclear factor erythroid 2-related factor 2 (Mus musculus) (UniProt Q60795).
T1 sequence (whole entry): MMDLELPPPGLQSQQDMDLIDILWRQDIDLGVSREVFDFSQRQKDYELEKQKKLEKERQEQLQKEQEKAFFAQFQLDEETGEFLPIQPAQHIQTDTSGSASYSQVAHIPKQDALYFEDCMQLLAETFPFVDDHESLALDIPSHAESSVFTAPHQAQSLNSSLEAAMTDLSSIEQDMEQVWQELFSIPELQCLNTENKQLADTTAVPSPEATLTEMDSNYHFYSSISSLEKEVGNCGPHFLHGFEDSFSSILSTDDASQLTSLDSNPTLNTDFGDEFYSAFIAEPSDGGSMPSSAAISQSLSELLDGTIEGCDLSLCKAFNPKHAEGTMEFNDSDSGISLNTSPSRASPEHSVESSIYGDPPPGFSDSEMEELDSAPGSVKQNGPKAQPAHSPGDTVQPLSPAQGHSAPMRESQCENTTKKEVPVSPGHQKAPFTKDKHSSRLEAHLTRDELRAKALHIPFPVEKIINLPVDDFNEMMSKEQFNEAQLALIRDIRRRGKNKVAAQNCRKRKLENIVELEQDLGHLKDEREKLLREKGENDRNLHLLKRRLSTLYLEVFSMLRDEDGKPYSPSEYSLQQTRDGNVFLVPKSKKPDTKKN
The experiment is described as follows: Activation of Nrf2 in mouse Hepa-1c1c7 cells assessed as concentration required to double specific activity of NQO1 incubated for 48 hrs. Format: cell-based.

On to `CC1(C)C(=O)C(C#N)=C[C@]2(C)C3=CC(=O)C(C#N)=C[C@]3(C)CC[C@@H]12`, for which the pCD was 7.74.
Regarding `CC[C@]12C=C(C#N)C(=O)C=C1[C@@]1(C)C=C(C#N)C(=O)C(C)(C)[C@@H]1CC2`, the pCD stood at 7.74.
In the case of `CC1(C)C=CC(=O)C(C#N)=C1` it was 6.82; in that of `C=CC1(C)C=CC(=O)C(C#N)=C1` (configuration not stated), 6.82.
In the case of `C#C[C@]12C=C(C#N)C(=O)C=C1[C@@]1(C)C=C(C#N)C(=O)C(C)(C)[C@@H]1CC2` it was 9.04.
`CC1(C)C(=O)C(C#N)=C[C@]2(C)C3=CC(=O)C=C[C@]3(C)CC[C@@H]12`: the pCD is 6.8.
With `C#CC12C=C(C#N)C(=O)C=C1C(C)(C)CC2` (configuration not stated), the pCD was determined as 7.
On to `C=C[C@]12C=C(C#N)C(=O)C=C1[C@@]1(C)C=C(C#N)C(=O)C(C)(C)[C@@H]1CC2`, for which the pCD was 7.52.
For the compound `C#CC1(C)C=CC(=O)C(C#N)=C1` (configuration not stated), the pCD was 7.67.
In the case of `C#CC1(CC)C=CC(=O)C(C#N)=C1` (configuration not stated) it was 7.38.
In the case of `CC#CC1(C)C=CC(=O)C(C#N)=C1` (configuration not stated) it was 7.48.
As to `C#CC1(C=C)C=CC(=O)C(C#N)=C1` (configuration not stated), the pCD was 7.7.
Then `C#CC12C=C(C#N)C(=O)C=C1CCC2` (configuration not stated), with 7.25; and `CC1(C)C=C(C#N)C(=O)C(C)(C)C1`, with 5.72.
In the case of `C#CC1(C#C)C=CC(=O)C(C#N)=C1` it was 6.74; in that of `C#CC1(C)C=C(C#N)C(=O)CC1` (configuration not stated), 7.
Then `CC#C[C@]12C=C(C#N)C(=O)C=C1[C@@]1(C)C=C(C#N)C(=O)C(C)(C)[C@@H]1CC2`, with 8.12.
